According to patent publication US9446039B2, “Aminoheteroaryl compounds as MTH1 inhibitors” (CEMM—FORSCHUNGSZENTRUM FÜR MOLEKULARE MEDIZIN GMBH, priority 2012, dated 2016):

Assays:
Type in all cases: binding
[1] = biological target: SW480 colon carcinoma cells lysate proteins (Homo sapiens, UniProt P61204); settings: PreyGene ARF3
[2] = biological target: T1, SW480 colon carcinoma cells lysate proteins (Homo sapiens, UniProt P68104); settings: PreyGene EEF1A1; SW480 cells
T1 sequence (P68104 1-462): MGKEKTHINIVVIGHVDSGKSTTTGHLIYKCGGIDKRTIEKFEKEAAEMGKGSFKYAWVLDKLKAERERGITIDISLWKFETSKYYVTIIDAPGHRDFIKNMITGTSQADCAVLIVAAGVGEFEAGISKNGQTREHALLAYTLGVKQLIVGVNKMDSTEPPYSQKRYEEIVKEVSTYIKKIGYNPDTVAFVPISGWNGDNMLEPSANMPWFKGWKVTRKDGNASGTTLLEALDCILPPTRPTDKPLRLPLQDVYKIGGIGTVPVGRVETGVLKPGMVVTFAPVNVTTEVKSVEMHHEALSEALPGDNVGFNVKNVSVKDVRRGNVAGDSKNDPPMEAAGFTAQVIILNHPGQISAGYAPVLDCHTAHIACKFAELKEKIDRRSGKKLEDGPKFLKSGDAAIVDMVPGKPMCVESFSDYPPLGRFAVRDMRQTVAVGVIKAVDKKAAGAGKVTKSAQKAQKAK

[3] = biological target: T2, SW480 colon carcinoma cells lysate proteins (Homo sapiens, UniProt Q9Y617); settings: PreyGene PSAT1
T2 sequence (Q9Y617 1-370): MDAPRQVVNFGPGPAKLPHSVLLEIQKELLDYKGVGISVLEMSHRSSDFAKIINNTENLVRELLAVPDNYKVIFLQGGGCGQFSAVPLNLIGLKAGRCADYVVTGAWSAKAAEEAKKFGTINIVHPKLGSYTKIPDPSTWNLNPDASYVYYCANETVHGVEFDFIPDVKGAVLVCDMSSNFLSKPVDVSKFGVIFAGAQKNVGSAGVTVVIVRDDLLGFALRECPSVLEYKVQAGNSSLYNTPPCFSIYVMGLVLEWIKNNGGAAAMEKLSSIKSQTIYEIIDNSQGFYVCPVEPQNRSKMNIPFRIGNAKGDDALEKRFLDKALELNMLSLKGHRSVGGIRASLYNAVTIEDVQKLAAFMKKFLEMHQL

[4] = biological target: T3, SW480 colon carcinoma cells lysate proteins (Homo sapiens, UniProt P41250); settings: PreyGene GARS
T3 sequence (P41250 37-739): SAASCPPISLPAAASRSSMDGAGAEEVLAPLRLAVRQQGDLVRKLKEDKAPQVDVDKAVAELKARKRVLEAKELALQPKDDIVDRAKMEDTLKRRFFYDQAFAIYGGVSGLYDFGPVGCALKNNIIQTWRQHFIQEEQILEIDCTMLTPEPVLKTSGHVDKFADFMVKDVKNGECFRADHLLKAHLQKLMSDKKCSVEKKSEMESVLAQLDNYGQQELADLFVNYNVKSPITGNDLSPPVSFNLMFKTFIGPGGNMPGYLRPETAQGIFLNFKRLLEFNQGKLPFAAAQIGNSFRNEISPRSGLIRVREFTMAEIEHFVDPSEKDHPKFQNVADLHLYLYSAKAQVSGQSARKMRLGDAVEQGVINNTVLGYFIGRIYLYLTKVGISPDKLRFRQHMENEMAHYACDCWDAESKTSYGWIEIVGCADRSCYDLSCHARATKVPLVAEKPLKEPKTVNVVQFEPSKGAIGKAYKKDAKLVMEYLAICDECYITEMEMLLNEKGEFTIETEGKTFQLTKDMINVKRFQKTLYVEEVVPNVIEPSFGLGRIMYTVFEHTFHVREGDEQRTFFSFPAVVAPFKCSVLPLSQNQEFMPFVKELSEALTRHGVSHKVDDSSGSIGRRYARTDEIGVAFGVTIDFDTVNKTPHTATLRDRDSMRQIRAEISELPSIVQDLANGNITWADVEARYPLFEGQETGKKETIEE

[5] = biological target: SW480 colon carcinoma cells lysate proteins (Homo sapiens, UniProt Q9BVA1); settings: PreyGene TUBB2B; SW480 cells
Chain of SW480 colon carcinoma cells lysate proteins (Homo sapiens, UniProt Q9BVA1) (Q9BVA1 whole entry): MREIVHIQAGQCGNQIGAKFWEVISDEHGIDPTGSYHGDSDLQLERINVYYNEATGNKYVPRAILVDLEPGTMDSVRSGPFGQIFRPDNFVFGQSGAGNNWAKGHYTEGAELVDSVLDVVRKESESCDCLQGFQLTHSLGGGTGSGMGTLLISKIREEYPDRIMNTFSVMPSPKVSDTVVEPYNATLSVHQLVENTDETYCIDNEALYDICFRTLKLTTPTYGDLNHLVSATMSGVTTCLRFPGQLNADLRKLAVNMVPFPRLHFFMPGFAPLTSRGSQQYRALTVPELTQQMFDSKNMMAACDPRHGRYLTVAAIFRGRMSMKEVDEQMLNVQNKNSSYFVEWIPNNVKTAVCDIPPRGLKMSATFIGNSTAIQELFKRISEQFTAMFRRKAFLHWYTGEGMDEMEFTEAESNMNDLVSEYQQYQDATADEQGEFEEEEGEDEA

[6] = biological target: T4, SW480 colon carcinoma cells lysate proteins (Homo sapiens, UniProt Q9NSD9); settings: PreyGene FARSB
T4 sequence (Q9NSD9 1-589): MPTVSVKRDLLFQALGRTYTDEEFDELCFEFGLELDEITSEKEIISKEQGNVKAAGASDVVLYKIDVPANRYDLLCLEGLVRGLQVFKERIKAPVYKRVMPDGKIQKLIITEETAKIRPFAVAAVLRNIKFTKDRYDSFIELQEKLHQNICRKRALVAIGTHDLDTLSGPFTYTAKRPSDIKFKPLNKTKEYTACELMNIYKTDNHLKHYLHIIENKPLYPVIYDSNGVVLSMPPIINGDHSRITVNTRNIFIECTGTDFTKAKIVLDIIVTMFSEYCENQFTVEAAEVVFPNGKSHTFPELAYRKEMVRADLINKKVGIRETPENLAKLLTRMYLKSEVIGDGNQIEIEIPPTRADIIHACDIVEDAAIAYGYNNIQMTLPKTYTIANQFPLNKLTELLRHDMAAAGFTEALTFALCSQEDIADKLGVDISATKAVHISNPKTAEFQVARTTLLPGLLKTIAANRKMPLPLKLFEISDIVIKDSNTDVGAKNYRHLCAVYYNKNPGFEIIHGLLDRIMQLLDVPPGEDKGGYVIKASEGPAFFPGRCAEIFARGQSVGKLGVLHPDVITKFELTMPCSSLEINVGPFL

Chain of SW480 colon carcinoma cells lysate proteins (Homo sapiens, UniProt P61204) (P61204 whole entry): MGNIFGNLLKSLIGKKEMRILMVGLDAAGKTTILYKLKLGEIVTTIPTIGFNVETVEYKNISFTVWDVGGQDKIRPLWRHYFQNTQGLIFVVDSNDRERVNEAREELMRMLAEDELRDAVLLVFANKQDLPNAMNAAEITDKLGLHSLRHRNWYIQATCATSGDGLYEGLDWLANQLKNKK

## C[C@H](Oc1cc(-c2cnn(C3CCNCC3)c2)cnc1N)c1c(Cl)ccc(F)c1Cl [(5)-crizotinib]
[1]
  AvgP: 0.1881
  SC.Exp. 1-1: 2
  SC.Exp. 1-2: 0
  SC.Exp. 2-1: 0
  SC.Exp. 2-2: 0
  Sum (SC.Exp.): 2
[2]
  AvgP: 0
  SC.Exp. 1-1: 23
  SC.Exp. 1-2: 21
  SC.Exp. 2-1: 8
  SC.Exp. 2-2: 8
  SC.Exp. Sum: 60
[3]
  AvgP: 0.3916
  SC.Exp. 1-1: 3
  SC.Exp. 1-2: 3
  SC.Exp. 2-1: 0
  SC.Exp. 2-2: 0
  Sum (SC.Exp.): 6
[4]
  AvgP: 0.4818
  SC.Exp. 1-1: 6
  SC.Exp. 1-2: 7
  SC.Exp. 2-1: 0
  SC.Exp. 2-2: 0
  Sum (SC.Exp.): 13
[5]
  AvgP: 0
  SC.Exp. 1-1: 4
  SC.Exp. 1-2: 3
  SC.Exp. 2-1: 1
  SC.Exp. 2-2: 2
  SC.Exp. Sum: 10
[6]
  AvgP: 0.3413
  SC.Exp. 1-1: 3
  SC.Exp. 1-2: 2
  SC.Exp. 2-1: 0
  SC.Exp. 2-2: 0
  Sum (SC.Exp.): 5
